Results as given in US20240246946A1, “MODULATORS OF TREX1” (Constellation Pharmaceuticals, Inc., priority 2021, published 2024).

What was measured:
[1] = target: T1, full length human TREX1 (Homo sapiens, UniProt Q9NSU2); assay: hTREX1 Biochemical Assay (fluorescence, dsDNA substrate degradation); conditions: biochemical, read-out: hTREX1 IC50
T1 construct: N-terminally His-Tev tagged full length human TREX1; made in house; host or cells: E. coli
T1 sequence (Q9NSU2 1-314): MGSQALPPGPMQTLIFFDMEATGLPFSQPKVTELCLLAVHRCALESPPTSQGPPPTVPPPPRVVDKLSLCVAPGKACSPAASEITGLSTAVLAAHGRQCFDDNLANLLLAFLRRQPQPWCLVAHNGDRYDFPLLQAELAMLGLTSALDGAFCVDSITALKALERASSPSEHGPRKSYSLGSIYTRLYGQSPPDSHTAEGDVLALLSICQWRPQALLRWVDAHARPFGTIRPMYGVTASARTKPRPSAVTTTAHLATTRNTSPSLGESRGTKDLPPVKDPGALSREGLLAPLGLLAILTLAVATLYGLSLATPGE
Summary of the method: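 Cleavage of 60 nM TEX615/quencher-labelled dsDNA in pH 7.4 Tris buffer with 5 mM MgCl2, 1.0% DMSO, run 18 hours at 25° C, EDTA-quenched; fluorescence read-out.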

[2] = target: T2, full length mouse TREX1 (Mus musculus, UniProt Q91XB0); assay: mTREX1 Biochemical Assay (fluorescence, dsDNA substrate degradation); conditions: biochemical, read-out: mTREX1 IC50
T2 construct: N-terminally His-Tev tagged full length mouse TREX1; made in house; host or cells: E. coli
T2 sequence (Q91XB0 1-314): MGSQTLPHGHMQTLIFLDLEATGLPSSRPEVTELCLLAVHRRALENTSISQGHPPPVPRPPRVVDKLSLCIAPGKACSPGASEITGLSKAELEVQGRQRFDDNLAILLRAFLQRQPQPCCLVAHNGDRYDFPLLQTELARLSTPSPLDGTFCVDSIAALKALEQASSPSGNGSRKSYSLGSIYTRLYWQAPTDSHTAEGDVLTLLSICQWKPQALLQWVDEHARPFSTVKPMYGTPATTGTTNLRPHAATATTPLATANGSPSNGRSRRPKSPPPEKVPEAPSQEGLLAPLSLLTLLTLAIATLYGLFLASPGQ
Summary of the method: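 Reaction run 18 h at 25° C. with 60 nM TEX615/quencher-labelled dsDNA and 6 pM mouse TREX1 in Tris buffer (pH 7.4, 5 mM MgCl2, 1.0% DMSO), enzyme having sat 4 h with compound across 10 concentrations. EDTA quench; substrate degradation measured as fluorescence increase.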

[3] = target: T3, human TREX2 (residues M44-A279) (Homo sapiens, UniProt Q9BQ50); assay: hTREX2 Biochemical Assay (fluorescence, dsDNA substrate degradation); conditions: biochemical selectivity for hTREX1 vs hTREX2
T3 construct: human TREX2 (residues M44-A279, expressed in E. coli); made in house; host or cells: E. coli
T3 sequence (Q9BQ50 44-279 isoform Q9BQ50-1): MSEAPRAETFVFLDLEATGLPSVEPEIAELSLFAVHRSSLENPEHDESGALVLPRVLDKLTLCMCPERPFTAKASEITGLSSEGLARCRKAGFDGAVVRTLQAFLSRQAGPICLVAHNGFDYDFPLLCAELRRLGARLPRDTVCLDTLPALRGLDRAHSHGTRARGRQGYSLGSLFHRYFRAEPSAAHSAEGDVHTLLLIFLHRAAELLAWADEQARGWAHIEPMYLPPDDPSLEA
Summary of the method: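 N-His-Tev E. coli enzyme (50 pM) pre-incubated with compound 4 h at 25 °C, then 60 nM TEX615/quencher dsDNA added; 18 h at 25 °C, pH 7.4 Tris buffer with 5 mM MgCl2, 1.0% DMSO. EDTA-quenched; fluorescence 570 ex/615 em from liberated fluorophore, 10-point dose-response.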

[4] = target: T4, hTREX1 (Homo sapiens, UniProt Q9NSU2); assay: hTREX1 HCT116 Cell Assay (HCT116 dual cells, Lucia luciferase reporter of Type I interferon induction); format: cell-based; conditions: TREX1i 4 h before pBR322/BstNI transfection, read after 48 h
T4 construct: host or cells: HCT116 dual cells
T4 sequence (Q9NSU2 1-314): T1 sequence (Q9NSU2 1-314)
Summary of the method: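 HCT116 dual cells carrying an ISRE-type STAT1/STAT2-driven secreted Lucia luciferase reporter were pretreated with TREX1 inhibitor for 4 h (≤0.1% DMSO), then transfected with pBR322/BstNI DNA (100 ng/well, Lipofectamine LTX). Luciferase in medium read after 48 h at 37 °C.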

SMILES | IC50 [1] [µM] | IC50 [2] [µM] | hTREX1 vs hTREX2 selectivity [3] | IC50 [4] [µM]
CC(c1nc(C(=O)Nc2cnoc2)c(O)c(=O)n1C)C(c1nnn(C)n1)c1ccccc1C#N (single isomer, unassigned) [Example 79 D1E2] | 0.001 to 0.01 | > 0.01 | B (B = 25 to 50-fold selective for hTREX1) | > 0.1
Cc1nn(C)cc1C(c1ccccc1C#N)C(c1nc(C(=O)Nc2cnoc2)c(O)c(=O)n1C)C(F)(F)F (single isomer, unassigned) [Example 41 D1E2] | < 0.001 | 0.001 to 0.01 | C (C = >50 fold selective for hTREX1) | < 0.01
Cc1ccnn1C(c1cc(F)ccc1Cl)C(C)c1nc(C(=O)Nc2cnoc2)c(O)c(=O)n1C (single isomer, unassigned) [Example 145 D1E1] | 0.001 to 0.01 | > 0.01 | B (B = 25 to 50-fold selective for hTREX1) | 0.01 to 0.1
Cc1cnc(C)c(C(c2ccccc2Cl)C(C)c2nc(C(=O)Nc3cnoc3)c(O)c(=O)n2C)n1 (single isomer, unassigned) [Example 120 D1E1] | < 0.001 | 0.001 to 0.01 | C (C = >50 fold selective for hTREX1) | < 0.01
Cc1cnc(C)c(C(c2cc(F)ccc2C#N)C(C)c2nc(C(=O)Nc3cnoc3)c(O)c(=O)n2C)n1 (single isomer, unassigned) [Example 119 D2E2] | > 0.01 | > 0.01 | A (A = <25 fold selective for hTREX1) | > 0.1
CC(c1nc(C(=O)Nc2cnoc2)c(O)c(=O)n1C)C(c1ccccc1Cl)c1cn(C)nc1F (single isomer, unassigned) [Example 130 D1E1] | < 0.001 | < 0.001 | B (B = 25 to 50-fold selective for hTREX1) | < 0.01
CCn1cc(C(c2ccccc2C#N)C(C)c2nc(C(=O)Nc3cnoc3)c(O)c(=O)n2C)cn1 (single isomer, unassigned) [Example 13 D2E1] | 0.001 to 0.01 | > 0.01 | B (B = 25 to 50-fold selective for hTREX1) | > 0.1
COC(C)(C)Cn1cc(C(c2cc(F)ccc2Cl)C(C)c2nc(C(=O)Nc3cnoc3)c(O)c(=O)n2C)cn1 (single isomer, unassigned) [Example 93 D1E1] | 0.001 to 0.01 | 0.001 to 0.01 | B (B = 25 to 50-fold selective for hTREX1) | 0.01 to 0.1
CC(c1nc(C(=O)Nc2cnoc2)c(O)c(=O)n1C)C(c1cnn(CCOC(F)(F)F)c1)c1cc(F)ccc1C#N (single isomer, unassigned) [Example 101 D1E2] | < 0.001 | 0.001 to 0.01 | C (C = >50 fold selective for hTREX1) | 0.01 to 0.1
COCCn1cc(C(c2cc(F)ccc2C#N)C(C)c2nc(C(=O)Nc3cnoc3)c(O)c(=O)n2C)c(C)n1 (single isomer, unassigned) [Example 103 D2E1] | 0.001 to 0.01 | > 0.01 | A (A = <25 fold selective for hTREX1) | > 0.1
Cc1nn(C)c(C)c1C(c1cc(F)ccc1C#N)C(C)c1nc(C(=O)Nc2cnoc2)c(O)c(=O)n1C (single isomer, unassigned) [Example 109 D1E1] | < 0.001 | 0.001 to 0.01 | B (B = 25 to 50-fold selective for hTREX1) | 0.01 to 0.1
Cc1cnc(C)c(C(c2ccccc2Cl)C(C)c2nc(C(=O)Nc3cnoc3)c(O)c(=O)n2C)n1 (single isomer, unassigned) [Example 120 D2E2] | > 0.01 | > 0.01 | C (C = >50 fold selective for hTREX1) | > 0.1
Cc1cnc(C(c2cc(F)ccc2Cl)C(C)c2nc(C(=O)Nc3cnoc3)c(O)c(=O)n2C)cn1 (single isomer, unassigned) [Example 117 D2E1] | 0.001 to 0.01 | > 0.01 | A (A = <25 fold selective for hTREX1) | > 0.1
Cc1ncc(C(c2ccccc2Cl)C(C)c2nc(C(=O)Nc3cnoc3)c(O)c(=O)n2C)nc1C (single isomer, unassigned) [Example 125 D2E1] | 0.001 to 0.01 | > 0.01 | A (A = <25 fold selective for hTREX1) | > 0.1
Cc1ncc(C(c2ccccc2Cl)C(C)c2nc(C(=O)Nc3cnoc3)c(O)c(=O)n2C)cn1 (single isomer, unassigned) [Example 44 D1E2] | 0.001 to 0.01 | 0.001 to 0.01 | B (B = 25 to 50-fold selective for hTREX1) | 0.01 to 0.1
CC(c1nc(C(=O)Nc2cnoc2)c(O)c(=O)n1C)C(c1ccccc1C#N)c1c[nH]nc1F (single isomer, unassigned) [Example 127 D1E1] | < 0.001 | < 0.001 | B (B = 25 to 50-fold selective for hTREX1) | < 0.01
COCCn1ncc(C(c2cc(F)ccc2Cl)C(C)c2nc(C(=O)Nc3cnoc3)c(O)c(=O)n2C)c1C (single isomer, unassigned) [Example 108 D2E1] | 0.001 to 0.01 | > 0.01 | A (A = <25 fold selective for hTREX1) | 0.01 to 0.1
CC(c1nc(C(=O)Nc2cnoc2)c(O)c(=O)n1C)C(c1cnn(C)c1)c1ccc(O)cc1C#N (single isomer, unassigned) [Example 80 D1E1] | < 0.001 | 0.001 to 0.01 | C (C = >50 fold selective for hTREX1) | > 0.1

Next, values leading:

IC50 [1] [µM] | IC50 [2] [µM] | hTREX1 vs hTREX2 selectivity [3] | IC50 [4] [µM] | SMILES
< 0.001 | 0.001 to 0.01 | C (C = >50 fold selective for hTREX1) | 0.01 to 0.1 | Cc1cc(C(c2cc(F)ccc2C#N)C(C)c2nc(C(=O)Nc3cnoc3)c(O)c(=O)n2C)nn1C (single isomer, unassigned) [Example 112 D1E1]
< 0.001 | 0.001 to 0.01 | C (C = >50 fold selective for hTREX1) | 0.01 to 0.1 | Cc1ccn(C(c2ccccc2C#N)C(C)c2nc(C(=O)Nc3cnoc3)c(O)c(=O)n2C)n1 (single isomer, unassigned) [Example 132 D1E2]
< 0.001 | > 0.01 | C (C = >50 fold selective for hTREX1) | 0.01 to 0.1 | Cc1nccc(C(c2ccccc2C#N)C(C)c2nc(C(=O)Nc3cnoc3)c(O)c(=O)n2C)n1 (single isomer, unassigned) [Example 83 D1E1]
0.001 to 0.01 | 0.001 to 0.01 | C (C = >50 fold selective for hTREX1) | > 0.1 | Cc1cnc(C(c2ccccc2C#N)C(C)c2nc(C(=O)Nc3cnoc3)c(O)c(=O)n2C)c(C)n1 (single isomer, unassigned) [Example 123 D1E1]
< 0.001 | 0.001 to 0.01 | C (C = >50 fold selective for hTREX1) | < 0.01 | Cc1cc(C(c2ccccc2C#N)C(C)c2nc(C(=O)Nc3cnoc3)c(O)c(=O)n2C)n(C)n1 (single isomer, unassigned) [Example 63 D1E1]
< 0.001 | < 0.001 | C (C = >50 fold selective for hTREX1) | < 0.01 | COCCn1cc(C(c2ccccc2C#N)C(C)c2nc(C(=O)Nc3cnoc3)c(O)c(=O)n2C)c(C)n1 (single isomer, unassigned) [Example 71 D1E1]
